Assay results taken from patent EP0238060B1, “Cephalosporin derivatives, processes for their preparation and antibacterial agents” (Banyu Pharmaceutical Co., Ltd., priority 1986, dated 1987).
Converted amounts (≈) assume the structure as drawn. Read-outs that look alike come from different tables or passages of the source.

What was measured:
Assay in all cases: In vitro antibacterial activity, agar plate dilution method (MIC)
Ps.cepacia 23 = format: cell-based, Pseudomonas cepacia; details: Burkholderia cepacia; Ps.cepacia 23; Mueller Hinton agar, inoculum 10⁶ CFU/ml, 37°C, 16 hours; read-out: Minimum Inhibitory Concentration (MIC: µg/ml)
Procedure: (§1) The in vitro antibacterial activities of the compounds of the present invention against various microorganisms, were measured by the following agar plate dilution method. One platinum loopfull of each test microorganism incubated overnight in Mueller Hinton broth, was inoculated to Mueller Hinton agar (inoculum size: l0⁶ CFU/ml). Such culture media containing various antibiotics in various concentrations were prepared. After incubation at 37°C for l6 hours, the minimum inhibitory concentrations (MIC: µg/ml) were measured. As comparative compounds, Cefotaxime, Ceftazidime and the compounds of Reference Examples l to 4 were employed.

C.freundii GN346 = format: cell-based; details: Citrobacter freundii; C.freundii GN346 (β-Lactamase-producing strain); Mueller Hinton agar, inoculum 10⁶ CFU/ml, 37°C, 16 hours; read-out: Minimum Inhibitory Concentration (MIC: µg/ml)
Procedure: as §1

Ps.aeruginosa AKR17 = format: cell-based; details: Pseudomonas aeruginosa; Ps.aeruginosa AKR17; Mueller Hinton agar, inoculum 10⁶ CFU/ml, 37°C, 16 hours; read-out: Minimum Inhibitory Concentration (MIC: µg/ml)
Procedure: as §1

S.aureus BB5703 = format: cell-based; details: Staphylococcus aureus; S.aureus BB5703; Mueller Hinton agar, inoculum 10⁶ CFU/ml, 37°C, 16 hours; read-out: Minimum Inhibitory Concentration (MIC: µg/ml)
Procedure: as §1

E.coli GN5482 = format: cell-based; details: Escherichia coli; E.coli GN5482 (β-Lactamase-producing strain); Mueller Hinton agar, inoculum 10⁶ CFU/ml, 37°C, 16 hours; read-out: Minimum Inhibitory Concentration (MIC: µg/ml)
Procedure: as §1

C.freundii GN346/16 = format: cell-based; details: Citrobacter freundii; C.freundii GN346/16; Mueller Hinton agar, inoculum 10⁶ CFU/ml, 37°C, 16 hours; read-out: Minimum Inhibitory Concentration (MIC: µg/ml)
Procedure: as §1

S.aureus JS1 = format: cell-based; details: Staphylococcus aureus; S.aureus JS1 (β-Lactamase-producing strain); Mueller Hinton agar, inoculum 10⁶ CFU/ml, 37°C, 16 hours; read-out: Minimum Inhibitory Concentration (MIC: µg/ml)
Procedure: as §1

Ps.aeruginosa AK 109 = format: cell-based; details: Pseudomonas aeruginosa, AK109; Ps.aeruginosa AK 109; Mueller Hinton agar, inoculum 10⁶ CFU/ml, 37°C, 16 hours; read-out: Minimum Inhibitory Concentration (MIC: µg/ml)
Procedure: as §1

M.morganii GN5407 = format: cell-based; details: Morganella morganii; M.morganii GN5407 (β-Lactamase-producing strain); Mueller Hinton agar, inoculum 10⁶ CFU/ml, 37°C, 16 hours; read-out: Minimum Inhibitory Concentration (MIC: µg/ml)
Procedure: as §1

P.vulgaris HX-19 = format: cell-based; details: Proteus vulgaris, HX19; P.vulgaris HX-19; Mueller Hinton agar, inoculum 10⁶ CFU/ml, 37°C, 16 hours; read-out: Minimum Inhibitory Concentration (MIC: µg/ml)
Procedure: as §1

E.cloacae 963 = format: cell-based; details: Enterobacter cloacae; E.cloacae 963; Mueller Hinton agar, inoculum 10⁶ CFU/ml, 37°C, 16 hours; read-out: Minimum Inhibitory Concentration (MIC: µg/ml)
Procedure: as §1

K.pneumoniae PCI-602 = format: cell-based; details: Klebsiella pneumoniae, PCI602; K.pneumoniae PCI-602; Mueller Hinton agar, inoculum 10⁶ CFU/ml, 37°C, 16 hours; read-out: Minimum Inhibitory Concentration (MIC: µg/ml)
Procedure: as §1

S.marcescens IAM 1184 = format: cell-based; details: Serratia marcescens, IAM1184; S.marcescens IAM 1184; Mueller Hinton agar, inoculum 10⁶ CFU/ml, 37°C, 16 hours; read-out: Minimum Inhibitory Concentration (MIC: µg/ml)
Procedure: as §1

S.marcescens No. 16-2 = format: cell-based; details: Serratia marcescens, NO.162; S.marcescens No. 16-2 (β-Lactamase-producing strain); Mueller Hinton agar, inoculum 10⁶ CFU/ml, 37°C, 16 hours; read-out: Minimum Inhibitory Concentration (MIC: µg/ml)
Procedure: as §1

E.coli CSH2 (RK1) = format: cell-based; details: Escherichia coli, 16 h, read-out: Minimum Inhibitory Concentration (MIC: µg/ml)
Procedure: as §1

K.pneumoniae No. 42 = format: cell-based; details: Klebsiella pneumoniae, read-out: Minimum Inhibitory Concentration (MIC: µg/ml)
Procedure: as §1

E.coli NIHJ JC2 = format: cell-based; details: Escherichia coli, NIHJJC2; E.coli NIHJ JC2; Mueller Hinton agar, inoculum 10⁶ CFU/ml, 37°C, 16 hours; read-out: Minimum Inhibitory Concentration (MIC: µg/ml)
Procedure: as §1

E.cloacae Nek 39 = format: cell-based; details: Enterobacter cloacae, NEK39; E.cloacae Nek 39 (β-Lactamase-producing strain); Mueller Hinton agar, inoculum 10⁶ CFU/ml, 37°C, 16 hours; read-out: Minimum Inhibitory Concentration (MIC: µg/ml)
Procedure: as §1

A.calcoaceticus No. 4 = format: cell-based; details: Acinetobacter calcoaceticus; A.calcoaceticus No. 4; Mueller Hinton agar, inoculum 10⁶ CFU/ml, 37°C, 16 hours; read-out: Minimum Inhibitory Concentration (MIC: µg/ml)
Procedure: as §1

S.aureus 209P NIHJ-JC1 = format: cell-based; details: Staphylococcus aureus; S.aureus 209P NIHJ-JC1; Mueller Hinton agar, inoculum 10⁶ CFU/ml, 37°C, 16 hours; read-out: Minimum Inhibitory Concentration (MIC: µg/ml)
Procedure: as §1

E.coli CSH(RE45) = format: cell-based; details: Escherichia coli, 16 h, read-out: Minimum Inhibitory Concentration (MIC: µg/ml)
Procedure: as §1

K.oxytoca GN10650 = format: cell-based; details: Klebsiella oxytoca; K.oxytoca GN10650 (β-Lactamase-producing strain); Mueller Hinton agar, inoculum 10⁶ CFU/ml, 37°C, 16 hours; read-out: Minimum Inhibitory Concentration (MIC: µg/ml)
Procedure: as §1

S.epidermidis IAM12012 = format: cell-based; details: Staphylococcus epidermidis; S.epidermidis IAM12012; Mueller Hinton agar, inoculum 10⁶ CFU/ml, 37°C, 16 hours; read-out: Minimum Inhibitory Concentration (MIC: µg/ml)
Procedure: as §1

P.vulgaris No. 33 = format: cell-based; details: Proteus vulgaris; P.vulgaris No. 33 (β-Lactamase-producing strain); Mueller Hinton agar, inoculum 10⁶ CFU/ml, 37°C, 16 hours; read-out: Minimum Inhibitory Concentration (MIC: µg/ml)
Procedure: as §1

Ps.aeruginosa IFO3445 = format: cell-based; details: Pseudomonas aeruginosa; Ps.aeruginosa IFO3445; Mueller Hinton agar, inoculum 10⁶ CFU/ml, 37°C, 16 hours; read-out: Minimum Inhibitory Concentration (MIC: µg/ml)
Procedure: as §1

M.luteus ATCC9341 = format: cell-based; details: Micrococcus luteus; M.luteus ATCC9341; Mueller Hinton agar, inoculum 10⁶ CFU/ml, 37°C, 16 hours; read-out: Minimum Inhibitory Concentration (MIC: µg/ml)
Procedure: as §1

Ps.maltophilia GN 12873 = format: cell-based, Pseudomonas maltophilia; details: Stenotrophomonas maltophilia, GN12873; Ps.maltophilia GN 12873 (β-Lactamase-producing strain); Mueller Hinton agar, inoculum 10⁶ CFU/ml, 37°C, 16 hours; read-out: Minimum Inhibitory Concentration (MIC: µg/ml)
Procedure: as §1

| Structure (SMILES) | MIC (Ps.cepacia 23) [µg/mL] | MIC (C.freundii GN346) [µg/mL] | MIC (Ps.aeruginosa AKR17) [µg/mL] | MIC (S.aureus BB5703) [µg/mL] | MIC (E.coli GN5482) [µg/mL] | MIC (C.freundii GN346/16) [µg/mL] | MIC (S.aureus JS1) [µg/mL] | MIC (Ps.aeruginosa AK 109) [µg/mL] | MIC (M.morganii GN5407) [µg/mL] | MIC (P.vulgaris HX-19) [µg/mL] | MIC (E.cloacae 963) [µg/mL] | MIC (K.pneumoniae PCI-602) [µg/mL] | MIC (S.marcescens IAM 1184) [µg/mL] | MIC (S.marcescens No. 16-2) [µg/mL] | MIC (E.coli CSH2 (RK1)) [µg/mL] | MIC (E.coli NIHJ JC2) [µg/mL] | MIC (E.cloacae Nek 39) [µg/mL] | MIC (A.calcoaceticus No. 4) [µg/mL] | MIC (S.aureus 209P NIHJ-JC1) [µg/mL] | MIC (E.coli CSH(RE45)) [µg/mL] | further results |
| --- | --- | --- | --- | --- | --- | --- | --- | --- | --- | --- | --- | --- | --- | --- | --- | --- | --- | --- | --- | --- | --- |
| CO/N=C(\C(=O)NC1C(=O)N2C(C(=O)[O-])=C(C[n+]3ccc4cc(OC(C)=O)c(OC(C)=O)cc4c3)CSC12)c1csc(N)n1 (stereo not drawn) [Ex. 8, 3-(6,7-diacetoxy-2-isoquinolino)methyl-7-[2-(2-aminothiazol-4-yl)-2-methoxyiminoacetamido]-3-cephem-4-carboxylate] | 0.2 (≈ 0.312 µM) | 50 (≈ 78 µM) | 100 (≈ 156 µM) | 12.5 (≈ 19.5 µM) | 0.78 (≈ 1.22 µM) | 0.78 (≈ 1.22 µM) | 50 (≈ 78 µM) | 0.78 (≈ 1.22 µM) | 0.05 (≈ 0.078 µM) | 0.025 (≈ 0.039 µM) | 0.025 (≈ 0.039 µM) | < 0.006 | 0.025 (≈ 0.039 µM) | 1.56 (≈ 2.44 µM) | 0.0125 (≈ 0.0195 µM) | 0.1 (≈ 0.156 µM) | 0.2 (≈ 0.312 µM) | 0.2 (≈ 0.312 µM) | 6.25 (≈ 9.76 µM) | 0.1 (≈ 0.156 µM) | MIC (K.pneumoniae No. 42; NO.42, 16 h): 0.0125 µg/mL (≈ 0.0195 µM); MIC (K.oxytoca GN10650): 0.2 µg/mL (≈ 0.312 µM); MIC (S.epidermidis IAM12012): 3.12 µg/mL (≈ 4.87 µM); MIC (P.vulgaris No. 33): 0.1 µg/mL (≈ 0.156 µM); MIC (Ps.aeruginosa IFO3445): 0.78 µg/mL (≈ 1.22 µM); MIC (M.luteus ATCC9341): 0.78 µg/mL (≈ 1.22 µM); MIC (Ps.maltophilia GN 12873): > 100 µg/mL |
| C#CCON=C(C(=O)NC1C(=O)N2C(C(=O)[O-])=C(C[n+]3ccc4cc(O)c(O)cc4c3)CS[C@H]12)c1csc(N)n1 (stereo partly drawn) [Ex. 7, 7-[2-(2-aminothiazol-4-yl)-2-(2-propynyloxyimino)acetamido]-3-(6,7-dihydroxy-2-isoquinolio)methyl-3-cephem-4-carboxylate] | 0.1 (≈ 0.172 µM) | 50 (≈ 86.1 µM) | 100 (≈ 172 µM) | 6.25 (≈ 10.8 µM) | 0.78 (≈ 1.34 µM) | 0.78 (≈ 1.34 µM) | 50 (≈ 86.1 µM) | 0.78 (≈ 1.34 µM) | 0.05 (≈ 0.0861 µM) | < 0.006 | 0.0125 (≈ 0.0215 µM) | < 0.006 | < 0.006 | 1.56 (≈ 2.69 µM) | < 0.006 | 0.2 (≈ 0.344 µM) | 0.2 (≈ 0.344 µM) | 0.2 (≈ 0.344 µM) | 1.56 (≈ 2.69 µM) | 0.05 (≈ 0.0861 µM) | MIC (K.pneumoniae No. 42; K.pneumoniae No. 42 (β-Lactamase-producing strain), Mueller Hinton agar, inoculum 10⁶ CFU/ml, 37°C, 16 hours): < 0.006 µg/mL; MIC (K.oxytoca GN10650): 1.56 µg/mL (≈ 2.69 µM); MIC (S.epidermidis IAM12012): 0.2 µg/mL (≈ 0.344 µM); MIC (P.vulgaris No. 33): 0.05 µg/mL (≈ 0.0861 µM); MIC (Ps.aeruginosa IFO3445): 0.78 µg/mL (≈ 1.34 µM); MIC (M.luteus ATCC9341): 0.2 µg/mL (≈ 0.344 µM); MIC (Ps.maltophilia GN 12873): > 100 µg/mL |
